Assay results taken from US20080039438A1, “1B-Methylcarbapenem Derivative and Process for the Preparation Thereof” (Korea Institute of Science and Technology, priority 2004, published 2008).

Experiments:
[1] = tested on: Proteus mirabilis; test: MIC against clinically isolated aerobic Gram-negative strains; assay type: cell-based; details: 15 strains
[2] = Pharmacokinetics test in rats; assay type: in vivo, Sprague-Dawley rats
Method: (§1) The pharmacokinetic behavior of the sodium 3-carboxylate compound of Example was determined as follows. Male Sprague-Dawley rats (weighing 250 g, 14-15 weeks old, 5 rats/group) and Beagle dogs (weighing 10 kg, 3 dogs/group) were maintained by feeding conventional hard food at identical conditions for more than 7 days. The test animals were fasted except water for more than 24 hours before tested. […] 500 μl of each blood sample was centrifuged at 12,000 rpm for 30 seconds, the supernatant was filtered through a 0.22 μm filter, and analyzed by HPLC/UV, and the result was listed in Table 7.

[3] = tested on: Streptococcus faecium MD 8b; test: MIC against standard strains (agar dilution); assay type: cell-based; details: Enterococcus faecium, MD8B, standard strain Streptococcus faecium MD 8b, 37° C., 18 to 20 hours, read-out: Minimum Inhibitory Concentration (MIC)
[4] = tested on: Proteus vulgaris; test: MIC against clinically isolated aerobic Gram-negative strains; assay type: cell-based; details: 15 strains
[5] = tested on: Klebsiella aerogenes 1522E; test: MIC against standard strains (agar dilution); assay type: cell-based; details: standard strain Klebsiella aerogenes 1522E, 37° C., 18 to 20 hours, read-out: Minimum Inhibitory Concentration (MIC)
[6] = tested on: Enterobacter cloacae; test: MIC against clinically isolated aerobic Gram-negative strains; assay type: cell-based; details: 29 strains
[7] = tested on: Enterococcus faecium; test: MIC against clinically isolated aerobic Gram-positive strains; assay type: cell-based; details: clinically isolated Enterococcus faecium, 29 strains
[8] = tested on: Streptococcus pneumoniae; test: as above; assay type: cell-based; details: 22 strains
[9] = tested on: Pseudomonas aeruginosa 1592E; test: MIC against standard strains (agar dilution); assay type: cell-based; details: standard strain Pseudomonas aeruginosa 1592E, 37° C., 18 to 20 hours, read-out: Minimum Inhibitory Concentration (MIC)
[10] = Pharmacokinetics test in dogs; assay type: in vivo, Beagle dogs; details: Beagle, supernatant of centrifuged blood; dog, intravenous, 5 mg/kg
Method: as §1

[11] = tested on: Klebsiella oxytoca; test: MIC against clinically isolated aerobic Gram-negative strains; assay type: cell-based; details: 15 strains
[12] = tested on: Escherichia coli DC 0; test: MIC against standard strains (agar dilution); assay type: cell-based; details: DC0, standard strain Escherichia coli DC 0, 37° C., 18 to 20 hours, read-out: Minimum Inhibitory Concentration (MIC)
[13] = tested on: Staphylococcus aureus SG511; test: MIC against standard strains (agar dilution); assay type: cell-based; details: standard strain Staphylococcus aureus SG511, 37° C., 18 to 20 hours, read-out: Minimum Inhibitory Concentration (MIC)
[14] = tested on: Acinetobacter baumannii; test: MIC against clinically isolated aerobic Gram-negative strains; assay type: cell-based; details: 30 strains
[15] = tested on: Serratia marcescens; test: as above; assay type: cell-based; details: 14 strains
[16] = tested on: Enterococcus faecalis; test: MIC against clinically isolated aerobic Gram-positive strains; assay type: cell-based; details: 30 strains
[17] = tested on: Escherichia coli DC 2; test: MIC against standard strains (agar dilution); assay type: cell-based; details: DC2; standard strain Escherichia coli DC 2; agar, 37° C., 18 to 20 hours; read-out: Minimum Inhibitory Concentration (MIC)
[18] = tested on: Peptostreptococcus spp.; test: MIC against clinically isolated anaerobic Gram-positive strains; assay type: cell-based; details: 27 strains
[19] = tested on: Staphylococcus coagulase; test: MIC against clinically isolated aerobic Gram-positive strains; assay type: cell-based
[20] = tested on: Escherichia coli TEM; test: MIC against standard strains (agar dilution); assay type: cell-based; details: standard strain Escherichia coli TEM, 37° C., 18 to 20 hours, read-out: Minimum Inhibitory Concentration (MIC)
[21] = target: T1, DHP-I (Sus scrofa, UniProt P22412); assay type: in vitro ADME, porcine; details: pig, 50 μg/ml, pH 7
T1 construct: DHP-I used in the experiment was isolated from the kidney cortex of a porcine; from tissue; host or cells: porcine kidney cortex
T1 sequence (P22412 17-384): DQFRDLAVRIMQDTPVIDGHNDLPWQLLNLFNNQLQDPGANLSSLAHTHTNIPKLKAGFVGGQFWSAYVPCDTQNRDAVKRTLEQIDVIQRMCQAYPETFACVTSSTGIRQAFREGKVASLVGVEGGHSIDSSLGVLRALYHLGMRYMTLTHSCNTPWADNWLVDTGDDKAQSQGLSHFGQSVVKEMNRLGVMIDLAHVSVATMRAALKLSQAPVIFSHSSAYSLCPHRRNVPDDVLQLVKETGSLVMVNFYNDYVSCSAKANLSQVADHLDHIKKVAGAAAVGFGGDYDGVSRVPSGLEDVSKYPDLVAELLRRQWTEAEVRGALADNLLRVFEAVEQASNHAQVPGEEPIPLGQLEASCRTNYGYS
Method: To investigate the stability of sodium 3-carboxylate compound of formula (I) prepared in Example to DHP-I secreted in the kidney, the following experiment was performed.
DHP-I used in the experiment was isolated from the kidney cortex of a porcine. The enzyme quantity at which the concentration of imipenem was reduced by one half by hydrolysis at 30° C. for 30 minutes was defined as one unit. 50 μg/ml of a test drug and a unit of DHP-I were added to 1 ml of MOPS buffer (pH 7.0), the mixture was maintained at 30° C. and OD values at 299 nm were measured after 0.5, 1, 2, 4 hours.

[22] = tested on: Streptococcus pyogenes; test: MIC against clinically isolated aerobic Gram-positive strains; assay type: cell-based; details: 15 strains
[23] = tested on: Bacteroides thetaiotaomicron; test: MIC against clinically isolated anaerobic Gram-negative strains; assay type: cell-based; details: clinically isolated anaerobic Bacteroides thetaiotaomicron, 15 strains
[24] = male, Sprague-Dawley, supernatant of centrifuged blood, rat, intravenous, 20 mg/kg

C[C@@H](O)[C@H]1C(=O)N2C(C(=O)O)=C(S[C@@H]3CN[C@H](/C=C/c4cc(C(=O)O)no4)C3)[C@H](C)[C@H]12 [Example, (1R,5S,6S,8R,3′S,5′S)-2-{5′-[(E)-2-(3-carboxylic acid or sodium carboxylate-5-isoxazolo)ethenyl]pyrrolidin-3′-ylthio}-6-(1-hydroxyethyl)-1-methylcarbapen-2-em-3-carboxylic acid]
MIC50 [1]: 0.03 µg/mL
MIC90 [1]: 0.06 µg/mL
MIC Range [1]: 0.015 to 0.06 µg/mL
higher bioavailability than meropenem ([2]; in rats, versus meropenem): about 4 fold
longer half-life than meropenem ([2]; in rats, versus meropenem): about 3 fold
clearance [2, 24]: 13.3 ± 1.5 mL/min/kg
half-life [2, 24]: 12.4 ± 4.1 min
AUC ([2]; male, Sprague-Dawley, supernatant of centrifuged blood, rat, intravenous, 20 mg/kg, read-out: AUC (converted)): 25300 ng·h/mL
MIC [3]: 12.5 µg/mL
MIC50 [4]: 0.06 µg/mL
MIC90 [4]: 0.06 µg/mL
MIC Range [4]: 0.03 to 0.06 µg/mL
MIC [5]: 0.049 µg/mL
MIC50 [6]: 0.12 µg/mL
MIC90 [6]: 0.5 µg/mL
MIC Range [6]: 0.015 to 2 µg/mL
MIC Range [7]: 16 to 128 µg/mL
MIC50 ([7]; read-out: MIC50): 128 µg/mL
MIC90 ([7]; read-out: MIC90): 128 µg/mL
MIC50 [8]: 0.008 µg/mL
MIC90 [8]: 0.12 µg/mL
MIC Range [8]: 0.008 to 0.25 µg/mL
MIC [9]: 0.195 µg/mL
AUC [10]: 14400 ng·h/mL
half-life [10]: 41 min
MIC50 [11]: 0.03 µg/mL
MIC90 [11]: 0.03 µg/mL
MIC Range [11]: 0.015 to 0.25 µg/mL
MIC [12]: 0.025 µg/mL
MIC [13]: 0.098 µg/mL
MIC50 [14]: 8 µg/mL
MIC90 [14]: 64 µg/mL
MIC Range [14]: 2 to 128 µg/mL
MIC50 [15]: 0.03 µg/mL
MIC90 [15]: 16 µg/mL
MIC Range [15]: 0.03 to 16 µg/mL
MIC50 [16]: 8 µg/mL
MIC90 [16]: 32 µg/mL
MIC Range [16]: 4 to 32 µg/mL
MIC [17]: 0.025 µg/mL
MIC50 [18]: 0.12 µg/mL
MIC90 [18]: 4 µg/mL
MIC Range [18]: 0.06 to 4 µg/mL
MIC50 ([19]; Staphylococcus): 0.12 µg/mL
MIC90 ([19]; Staphylococcus): 0.25 µg/mL
MIC Range ([19]; clinically isolated Staphylococcus coagulase, 22 strains): 0.06 to 0.5 µg/mL
MIC [20]: 0.025 µg/mL
higher stability to DHP-I than imipenem [21]: about 25 fold
MIC50 [22]: < 0.008 µg/mL
MIC90 [22]: < 0.008 µg/mL
MIC Range [22]: <0.008 µg/mL
MIC Range [23]: 0.5 to 8 µg/mL
MIC50 ([23]; read-out: MIC50): 1 µg/mL
MIC90 ([23]; read-out: MIC90): 4 µg/mL
